Results published in patent publication US5278148A (Hoffmann-La Roche Inc., priority 1989, dated 1994).

target: T1, human renin (Homo sapiens, UniProt P00797); experiment: In vitro test with pure human renin; format: biochemical; settings: human tetradecapeptide renin substrate (hTD), pH 7.4, incubated three hours at 37° C. or 4° C., angiotensin I via RIA
T1 sequence (P00797 67-406): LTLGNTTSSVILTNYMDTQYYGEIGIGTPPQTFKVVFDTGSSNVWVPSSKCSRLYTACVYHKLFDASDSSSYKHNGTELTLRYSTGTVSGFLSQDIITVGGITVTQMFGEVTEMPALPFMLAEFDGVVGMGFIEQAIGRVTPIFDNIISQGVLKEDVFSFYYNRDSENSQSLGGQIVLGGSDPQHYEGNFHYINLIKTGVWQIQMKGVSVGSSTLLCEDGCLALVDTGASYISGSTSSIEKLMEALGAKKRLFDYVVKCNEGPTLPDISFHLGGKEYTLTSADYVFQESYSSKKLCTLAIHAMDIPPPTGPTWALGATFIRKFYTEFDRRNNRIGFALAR
Experimental: In Vitro Test with Pure Human Renin
The test is carried out in Eppendorf test tubes. The incubation mixture consists of (1) 100 μl of human renin in buffer A (0.1M sodium phosphate solution, pH 7.4, 0.1% bovine serum albumin, 0.1% sodium azide and 1 mM ethylenediaminetetraacetic acid), sufficient for a renin activity of 2-3 ng of angiotensin I/ml/hr.; (2) 145 μl of buffer A; (3) 30 μl of 10 μm human tetradecapeptide renin substrate (hTD) in 10 mM hydrochloric acid; (4) 15 μl of dimethyl sulfoxide with or without inhibitor and (5) 10 μl of a 0.03 molar solution of hydroxy- quinoline sulfate in water.
The samples are incubated for three hours at 37° C. or 4° C. in triplicate. 2×100 μl samples per experimental test tube are used in order to measure the production of angiotensin I via RIA (standard radioimmunoassay; clinincal assay solid phase kit). Cross reactivities of the antibody used in the RIA are: angiotensin I 100%; angiotensin II 0.0013%; hTD (angiotensin I-Val-Ile-His-Ser-OH) 0.09%. The production of angiotensin I is determined by the difference between the experiment at 37° C. and that at 4° C.
The following controls are carried out:
(a) Incubation of hTD samples without renin and without inhibitor at 37° C. and 4° C. The difference between these two values gives the base value of angiotensin I production.
(b) Incubation of hTD samples with renin, but without inhibitor at 37° C. and 4° C. The difference between these values gives the maximal value of angiotensin I production.
In each sample the base value of angiotensin I production is substracted from the angiotensin I production which is determined. The difference between the maximal value and the base value gives the value of the maximal substrate hydrolysis (=100%) by renin.
The results are given as IC50 values which denote that concentration of the inhibitor at which the enzymatic activity is inhibited by 50%. The IC50 values are determined from a linear regression curve from a logit-log plot.

IC50 [nM] | Compound
28 | CN(C[C@H](O)[C@H](CC1CCCCC1)NC(=O)[C@H](Cc1c[nH]cn1)NC(=O)[C@@H](CC(=O)C(C)(C)C)Cc1ccccc1)C(=O)[C@H](Cc1c[nH]cn1)NC(=O)[C@@H](CC(=O)C(C)(C)C)Cc1ccccc1 [C]
30 | CN(C[C@H](O)[C@H](CC1CCCCC1)NC(=O)[C@H](Cc1c[nH]cn1)NC(=O)[C@H](Cc1ccccc1)NC(=O)OC(C)(C)C)C(=O)[C@H](Cc1c[nH]cn1)NC(=O)[C@H](Cc1ccccc1)NC(=O)OC(C)(C)C [E]
41 | CC(C)(C)C(=O)C[C@@H](Cc1ccccc1)C(=O)N[C@@H](Cc1c[nH]cn1)C(=O)N[C@@H](CC1CCCCC1)[C@@H](O)CN1CCCCC1=O [A, (S)-N-[(1S,2S)-1-(Cyclohexylmethyl)-2-hydroxy-3-(2oxopiperidino)propyl]-α-[(R)-α-(3,3-dimethyl-2-oxobutyl)hydrocinnamamido]imidazole-4-propionamide]
20 | CC(C)(C)C(=O)C[C@@H](Cc1ccccc1)C(=O)N[C@@H](Cc1c[nH]cn1)C(=O)N[C@@H](CC1CCCCC1)[C@@H](O)CN1C(=O)c2ccccc2C1=O [G, (S)-N-[(1S,2S)-1-(Cyclohexylmethyl)-2-hydroxy-3-phthalimidopropyl]-α-[(R)-α-(3,3-dimethyl-2-oxobutyl)hydrocinnamamido]imidazole-4-propionamide]
19 | CN(C[C@H](O)[C@H](CC1CCCCC1)NC(=O)[C@H](Cc1c[nH]cn1)NC(=O)[C@@H](CC(=O)C(C)(C)C)Cc1ccccc1)C(=O)[C@H](Cc1c[nH]cn1)NC(=O)CCc1ccccc1 [D, (S)-N-[(1S,2S)-1-(Cyclohexylmethyl)-2-hydroxy-3-[(S)-3-(imidazol-4-yl)-2-hydrocinnamamido-N-methylpropionamido]propyl]-α-[(R)-α-(3,3-dimethyl-2-oxobutyl)hydrocinnamamido]imidazole-4-propionamide]

Compound | IC50 [nM]
(S)-N-[(1S,2S)-1-(Cyclohexylmethyl)-3-[(S)-α-[(R)-α-(3,3-dimethyl-2-oxobutyl)hydrocinnamamido]-N-isopropylimidazol-4-propionamido]-2-hydroxypropyl]-α-[(R)-α-(3,3-dimethyl-2-oxobutyl)hydrocinnamamido]imidazole-4-propionamide | 41
CN(C[C@H](O)[C@H](CC1CCCCC1)NC(=O)[C@H](Cc1c[nH]cn1)NC(=O)[C@H](Cc1ccccc1)NC(=O)OC(C)(C)C)C(=O)[C@H](Cc1ccccc1)NC(=O)OC(C)(C)C [F, t-Butyl [(S)-α-[[(2S,3S)-3-[(S)-2-[(S)-α-(1-t-butoxyformamido)hydrocinnamamido]-3-imidazol-4-ylpropionamido]-4-cyclohexyl-2-hydroxybutyl]methylcarbamoyl]phenethyl]carbamate] | 15
